According to paper PMC12070314, “Efficient Small-Molecule Reversal Agents for Anticoagulant Fondaparinux” (ACS Pharmacology & Translational Science, 2025):

Tests used:
[1] = tested on: FXa/ATIII inhibited by fondaparinux; assay: In vitro FXa/ATIII enzymatic assay of anti-fondaparinux activity; assay type: biochemical, human; conditions: for Percent recovery of peptide substrate hydrolysis: [fond] = [antidote] = 15 μM, three reaction times
Procedure: The activity of two spermine derivatives, 3AC and 3FF, as fond antidotes was evaluated with an in vitro enzymatic assay related to blood coagulation, as previously described (Figure A). , In brief, fond promotes a conformational change in ATIII toward an efficient inhibitor of FXa. Addition of a ligand of fond hinders the inhibitory action of ATIII restoring the FXa hydrolytic activity, which has been used as an indirect measurement of antifond behavior.
Recombinant antithrombin III and coagulation factor Xa were obtained from two different kits, Berichrom Heparin test (SIEMENS) and Kinetichrome Anti-Xa Heparin kit (Iduron). Methods for both kits are similar, but not identical. Differences will be spotted by method A (SIEMENS) and method B (Iduron). Following the manufacturer’s instructions, stock solutions were prepared as follows: human antithrombin III (1 IU/mL) and factor Xa reagent (0.4 μg/mL, human plasma fraction with additives Tris, sodium chloride, and EDTA). Chromogenic substrate specific for factor Xa was dissolved at 4 mM concentration (A: Z-D-Leu-Gly-Arg-ANBA-methyl amide, and B: Z-D-Arg-Gly-Arg-pNA). Additionally, either 4-nitroaniline (A) or N-Boc-4-nitroaniline (B) was added to the substrate solution at a concentration of 1.6 mM and used as an internal standard to quantify the hydrolysis of the chromogenic substrate. All compounds were dissolved in Milli-Q water at the desired stock concentrations prior to start of the assays and kept at 4 °C. Various concentrations of the ligand, fondaparinux (up to 15 μM) or LMWH (0.1 to 10 μM), human antithrombin III solution (2 μL), and factor Xa reagent solution (35 μL) were consecutively added to an Eppendorf vial and brought to a total volume of 145 μL. Then, 20 μL of reagent substrate solution was added to start the experiment, and the mixture was vigorously shaken at 25 °C. 20 μL aliquots were taken at 5/10/15/20/30/50/80/120 minutes, diluted with 40 μL of acetic acid (20% v/v), and injected into the analytical HPLC system. The gradient ranged from 5% of ACN (0.1% formic acid) in water (0.1% formic acid) to 100% of ACN in 24 min using a 15 × 4.6 mm KROMAPHASE C18 5.0 μm column. In A: the retention time of cleaved chromophore was 9.1 min, retention time of chromogenic substrate was 13.9 min, and retention time of 4-nitroaniline was 15.4 min. In B: the retention time of chromogenic substrate was 11.0 min, retention time of cleaved chromophore was 15.2 min, and retention time of N-Boc-4-nitroaniline was 21.7 min. FXa/ATIII activity was represented as the percent of hydrolysis, which was calculated from the normalized area of the cleaved peptide at 405 nm at each corresponding time point. The experiment carried out in the absence of heparinoid was considered as the maximum of activity, while the experiment with heparinoid and no ligand was considered as negative control (maximum inhibition of FXa by heparinoid). The concentration of heparinoid was selected for the measurement to render significant inhibition within experimental time while allowing the reaction to proceed.

[2] = tested on: freshly extracted mouse blood; assay: Naked-eye ex vivo blood coagulation assay; assay type: cell-based; conditions: for Reversal of fond anticoagulant effect (clot formation by vial inversion): 100 μM fond + 200 μM antidote, 5 min
Procedure: Considering the results obtained in the in vitro assays, we aimed to test our molecules in a more relevant and challenging environment. To this aim, we performed naked-eye ex vivo coagulation assays (Figure ). Freshly extracted mouse blood samples were treated with fond (100 μM final concentration) in the absence and in the presence of different antidotes (two molar equivalents). Blood coagulation was visually inspected by the simple inversion of the vials. For a fair comparison between different series, all of the experiments were done in parallel with the corresponding control samples of untreated mouse blood (labeled “0” in Figure ). […] The effect of antidotes alone on blood coagulation was also tested (Figure B), showing that neither of the three small molecules appreciably changed the coagulation properties.
This naked-eye coagulation test is an adaptation of the whole blood clotting time assay. , Freshly collected mouse blood was directly used without further treatment. 300 μL aliquots were dispensed in Eppendorf tubes, to which fondaparinux (100 μM), and/or potential antidotes (3AC, 3FF, ciraparantag, or protamine, 200 μM) were added, and a picture was taken after 5 min. Clot formation was verified by inverting the Eppendorf vials.

**Q.** With `Oc1ccccc1CNCCCNCCCCNCCCNCc1ccccc1O` [Compound 3AA] as the compound, how does the “Percent recovery of peptide substrate hydrolysis” value (shortened to “Percent recovery”) [1] read?
**A.** lower potency as antidotes

**Q.** Which “Percent recovery” value [1] does the source give for `COc1ccccc1CNCCCNCCCCNCCCNCc1ccccc1OC` [Compound 3BB] here?
**A.** lower potency as antidotes

**Q.** Which “Percent recovery” value [1] does the source give for `N=C(N)NCCC[C@H](N)C(=O)NCCCN1CCN(CCCNC(=O)[C@@H](N)CCCNC(=N)N)CC1` [cir, ciraparantag, reference compound] here?
**A.** performs similarly to the spermine derivative ligand (3AA)

**Q.** And the “Reversal of fond anticoagulant effect (clot formation by vial inversion)” value [2]?
**A.** good antidote, though qualitatively less effective than 3AC/3FF

**Q.** Which “Effect on FXa hydrolytic activity” value ([1]; fond 15 μM, FXa/ATIII, no antidote) does the source give for `CO[C@H]1O[C@H](COS(=O)(=O)O)[C@@H](O[C@@H]2O[C@@H](C(=O)O)[C@@H](O[C@H]3O[C@H](COS(=O)(=O)O)[C@@H](O[C@@H]4O[C@H](C(=O)O)[C@@H](O[C@H]5O[C@H](COS(=O)(=O)O)[C@@H](O)[C@H](O)[C@H]5NS(=O)(=O)O)[C@H](O)[C@H]4O)[C@H](OS(=O)(=O)O)[C@H]3NS(=O)(=O)O)[C@H](O)[C@H]2OS(=O)(=O)O)[C@H](O)[C@H]1NS(=O)(=O)O` [fond, Fondaparinux] here?
**A.** clearly reduces the hydrolytic activity

**Q.** What about the “Effect on blood coagulation (vial inversion)” value ([2]; fond 100 μM alone) of the same compound?
**A.** anticoagulant effect

**Q.** For protamine, which “Percent recovery” value [1] is on record?
**A.** practically no in vitro activity against fond

**Q.** And the “Reversal of fond anticoagulant effect (clot formation by vial inversion)” value [2]?
**A.** fails to be an antidote of fond

**Q.** What about the “Effect of antidote alone on blood coagulation” value ([2]; 200 μM antidote, no fond) of the same compound?
**A.** acts as an anticoagulant itself
